Reference: PubChem BioAssay (NCI)
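Here, GI50 denotes the concentration required for 50% inhibition of growth. TGI: concentration producing complete growth inhibition.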

Key:
Assay in all cases: NCI-60 cell line screen, 384-well format
CCRF-CEM leukemia = system: CCRF-CEM leukemia
HCT-116 colon = system: HCT-116 colon
DU-145 prostate = system: DU-145 prostate
SF-268 CNS = system: SF-268 CNS
BT-549 breast = system: BT-549 breast
NCI-H522 lung = system: NCI-H522 lung
HOP-92 NSCLC = system: HOP-92 NSCLC
EKVX NSCLC = system: EKVX NSCLC
786-0 renal = system: 786-0 renal
A498 renal = system: A498 renal
HCC-2998 colon = system: HCC-2998 colon
COLO 205 colon = system: COLO 205 colon
MOLT-4 leukemia = system: MOLT-4 leukemia
SF-539 CNS = system: SF-539 CNS
U251 glioblastoma = system: U251 glioblastoma
NCI-H460 NSCLC = system: NCI-H460 NSCLC
UACC-257 melanoma = system: UACC-257 melanoma
HL-60(TB) leukemia = system: HL-60(TB) leukemia
OVCAR-4 ovarian = system: OVCAR-4 ovarian
MCF7 breast = system: MCF7 breast
OVCAR-8 ovarian = system: OVCAR-8 ovarian
NCI/ADR-RES ovarian = system: NCI/ADR-RES ovarian
SW-620 colon = system: SW-620 colon
T-47D breast = system: T-47D breast
ACHN renal = system: ACHN renal
K-562 leukemia = system: K-562 leukemia
MDA-MB-468 breast = system: MDA-MB-468 breast
MDA-MB-231 breast = system: MDA-MB-231 breast
NCI-H226 lung = system: NCI-H226 lung
SR leukemia = system: SR leukemia
UACC-62 melanoma = system: UACC-62 melanoma
SNB-75 CNS = system: SNB-75 CNS
TK-10 renal = system: TK-10 renal
HOP-62 NSCLC = system: HOP-62 NSCLC
NCI-H322M lung = system: NCI-H322M lung
LOX IMVI melanoma = system: LOX IMVI melanoma
RXF 393 renal = system: RXF 393 renal
CAKI-1 renal = system: CAKI-1 renal
SK-MEL-5 melanoma = system: SK-MEL-5 melanoma
SK-OV-3 ovarian = system: SK-OV-3 ovarian
SN12C renal = system: SN12C renal
RPMI-8226 leukemia = system: RPMI-8226 leukemia
SNB-19 CNS = system: SNB-19 CNS
OVCAR-3 ovarian = system: OVCAR-3 ovarian
A549 NSCLC = system: A549 NSCLC
UO-31 renal = system: UO-31 renal
SF-295 CNS = system: SF-295 CNS
HS 578T breast = system: HS 578T breast
NCI-H23 lung = system: NCI-H23 lung
MALME-3M melanoma = system: MALME-3M melanoma
HCT-15 colon = system: HCT-15 colon
KM12 colon = system: KM12 colon
PC-3 prostate = system: PC-3 prostate
IGROV1 ovarian = system: IGROV1 ovarian
M14 melanoma = system: M14 melanoma
HT29 colon = system: HT29 colon

Cn1nccc1Nc1nccc(-c2ccn([C@H](CO)c3ccc(Cl)c(F)c3)c(=O)c2)n1
GI50 (CCRF-CEM leukemia): 4.29 µM
TGI (CCRF-CEM leukemia): 15 µM
GI50 (HCT-116 colon): 1.78 µM
TGI (HCT-116 colon): 11.8 µM
GI50 (DU-145 prostate): 18.3 µM
TGI (DU-145 prostate): 38.1 µM
GI50 (SF-268 CNS): 38.1 µM
TGI (SF-268 CNS): > 100 µM
GI50 (BT-549 breast): 15.1 µM
TGI (BT-549 breast): 34.6 µM
GI50 (NCI-H522 lung): 2.66 µM
TGI (NCI-H522 lung): 9.45 µM
GI50 (HOP-92 NSCLC): 14.3 µM
TGI (HOP-92 NSCLC): 28.2 µM
GI50 (EKVX NSCLC): 76.5 µM
TGI (EKVX NSCLC): > 100 µM
GI50 ([…]-0 renal): 19.9 µM
TGI (786-0 renal): 58.7 µM
GI50 (A498 renal): 18.1 µM
TGI (A498 renal): 33.9 µM
GI50 (HCC-2998 colon): 0.565 µM
TGI (HCC-2998 colon): 12.1 µM
GI50 (COLO 205 colon): 0.102 µM
TGI (COLO 205 colon): 12.9 µM
GI50 (MOLT-4 leukemia): 11.6 µM
TGI (MOLT-4 leukemia): 24 µM
GI50 (SF-539 CNS): 1.76 µM
TGI (SF-539 CNS): 3.55 µM
GI50 (U251 glioblastoma): 7.42 µM
TGI (U251 glioblastoma): 20.9 µM
GI50 (NCI-H460 NSCLC): 20.4 µM
TGI (NCI-H460 NSCLC): 45.1 µM
GI50 (UACC-257 melanoma): 0.209 µM
TGI (UACC-257 melanoma): > 100 µM
GI50 (HL-60(TB) leukemia): 0.11 µM
TGI (HL-60(TB) leukemia): 13.1 µM
GI50 (OVCAR-4 ovarian): > 100 µM
TGI (OVCAR-4 ovarian): > 100 µM
GI50 (MCF7 breast): 37.4 µM
TGI (MCF7 breast): > 100 µM
GI50 (OVCAR-8 ovarian): 3.44 µM
TGI (OVCAR-8 ovarian): 10.7 µM
GI50 (NCI/ADR-RES ovarian): 78.1 µM
TGI (NCI/ADR-RES ovarian): > 100 µM
GI50 (SW-620 colon): 1.65 µM
TGI (SW-620 colon): 14.6 µM
GI50 (T-47D breast): 11.1 µM
TGI (T-47D breast): 54.5 µM
GI50 (ACHN renal): 45 µM
TGI (ACHN renal): > 100 µM
GI50 (K-562 leukemia): 6.93 µM
TGI (K-562 leukemia): 21.7 µM
GI50 (MDA-MB-468 breast): 23.7 µM
TGI (MDA-MB-468 breast): 48.5 µM
GI50 (MDA-MB-231 breast): 21.3 µM
TGI (MDA-MB-231 breast): > 100 µM
GI50 (NCI-H226 lung): 26.4 µM
TGI (NCI-H226 lung): 64.8 µM
GI50 (SR leukemia): 47.8 µM
TGI (SR leukemia): 85.2 µM
GI50 (UACC-62 melanoma): 0.0678 µM
TGI (UACC-62 melanoma): 14.8 µM
GI50 (SNB-75 CNS): 22.6 µM
TGI (SNB-75 CNS): 45.3 µM
GI50 (TK-10 renal): 21.2 µM
TGI (TK-10 renal): 51.7 µM
GI50 (HOP-62 NSCLC): 19.5 µM
TGI (HOP-62 NSCLC): 47.2 µM
GI50 (NCI-H322M lung): 15.6 µM
TGI (NCI-H322M lung): > 100 µM
GI50 (LOX IMVI melanoma): 1.08 µM
TGI (LOX IMVI melanoma): 11.7 µM
GI50 (RXF 393 renal): 21.2 µM
TGI (RXF 393 renal): 49 µM
GI50 (CAKI-1 renal): 15.5 µM
TGI (CAKI-1 renal): > 100 µM
GI50 (SK-MEL-5 melanoma): 0.409 µM
TGI (SK-MEL-5 melanoma): 22.1 µM
GI50 (SK-OV-3 ovarian): 15.9 µM
TGI (SK-OV-3 ovarian): 33.3 µM
GI50 (SN12C renal): 1.67 µM
TGI (SN12C renal): 4.67 µM
GI50 (RPMI-8226 leukemia): 16.5 µM
TGI (RPMI-8226 leukemia): 31 µM
GI50 (SNB-19 CNS): 16.6 µM
TGI (SNB-19 CNS): 52 µM
GI50 (OVCAR-3 ovarian): 18.5 µM
TGI (OVCAR-3 ovarian): 54.3 µM
GI50 (A549 NSCLC): 25.3 µM
TGI (A549 NSCLC): > 100 µM
GI50 (UO-31 renal): 30 µM
TGI (UO-31 renal): > 100 µM
GI50 (SF-295 CNS): 54 µM
TGI (SF-295 CNS): > 100 µM
GI50 (HS 578T breast): 18.8 µM
TGI (HS 578T breast): 34.1 µM
GI50 (NCI-H23 lung): 0.899 µM
TGI (NCI-H23 lung): 24 µM
GI50 (MALME-3M melanoma): 0.0289 µM
TGI (MALME-3M melanoma): 0.104 µM
GI50 (HCT-15 colon): 28.6 µM
TGI (HCT-15 colon): > 100 µM
GI50 (KM12 colon): 18.6 µM
TGI (KM12 colon): > 100 µM
GI50 (PC-3 prostate): 29.8 µM
TGI (PC-3 prostate): 84.3 µM
GI50 (IGROV1 ovarian): 14 µM
TGI (IGROV1 ovarian): 39.5 µM
GI50 (M14 melanoma): 0.0794 µM
TGI (M14 melanoma): 10.3 µM
GI50 (HT29 colon): 0.443 µM
TGI (HT29 colon): 20.7 µM
